Test results reported in patent US12157730B2, “Heteroaryl derivative, method for producing same, and pharmaceutical composition comprising same as effective component” (VORONOI INC., priority 2019, dated 2024).

Target: T1, Ba/F3 cell EGFR Exon20 ins NPH (Homo sapiens, UniProt P00533, INS773NPH)
T1 construct: expressed in transfected cells; host or cells: Ba/F3
Assay: Ba/F3 cell proliferation suppression, EGFR Exon20 ins NPH
Format: cell-based
Settings: GI50 class; Ba/F3 cell line with NPH inserted at Exon20 of EGFR; 72 hours
Procedure, shortened: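 Cells (3000–5000/well) plated 24 h before compound, 12-point 3-fold dilutions at 0.3 nM to 50 um final; Ba/F3 lines grown with 5 ng/ml IL-3. Viability by CellTiter-Glo luminescence after 72 h, growth ratio vs control, GI50 from curves; triplicate.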

| Ba/F3 (NPH) Activity | Structure (SMILES) |
| --- | --- |
| A (GI50 < 50 nM) | C=CC(=O)Nc1cc(Nc2cc(N3OCC[C@@H]3Cc3ccccc3)ncn2)c(OC)cc1N1C[C@H]2C[C@@H]1CN2CC [compound 949, N-(5-((6-((S)-3-benzylisoxazolidine-2-yl)pyrimidine-4-yl)amino)-2-((1R,4R)-5-ethyl-2,5-diazabicyclo [2.2.1]heptane-2-yl)-4-methoxyphenyl) acrylamide] |
| B (50 nM ≤ GI50 < 500 nM) | C=CC(=O)Nc1cc(Nc2cc(N3OCC[C@@H]3c3ccc(C)nc3)ncn2)c(OC)cc1N1CCN(C)CC1 [Example 44, N-(4-methoxy-2-(4-methylpiperazine-1-yl)-5-((6-((R)-3-(6-methylpyridine-3-yl)isoxazolidine-2-yl)pyrimidine-4-yl)amino)phenyl) acrylamide] |
| A (GI50 < 50 nM) | C=CC(=O)Nc1cc(Nc2cc(N3OCC[C@@H]3c3cc(F)ccc3F)ncn2)c(OC)cc1N1CCC(N2CCN(CC3CC3)CC2)CC1 [Example 93, N-(2-(4-(4-(cyclopropylmethyl)piperazine-1-yl)piperidine-1-yl)-5-((6-((R)-3-(2,5-difluorophenyl)isoxazolidine-2-yl)pyrimidine-4-yl)amino)-4-methoxyphenyl) acrylamide] |
| A (GI50 < 50 nM) | C=CC(=O)Nc1cc(Nc2cc(N3OCC[C@@H]3Cc3cccc(Cl)c3OC)ncn2)c(OC)cc1N1CCC(N2C[C@H]3C[C@@H]2CO3)CC1 [compound 1055, N-(2-(4-((1R,4R)-2-oxa-5-azabicyclo [2.2.1]heptane-5-yl)piperidine-1-yl)-5-((6-((S)-3-(3-chloro-2-methoxybenzyl)isoxazolidine-2-yl)pyrimidine-4-yl)amino)-4-methoxyphenyl) acrylamide] |
| A (GI50 < 50 nM) | C=CC(=O)Nc1cc(Nc2cc(N3OCC[C@@H]3c3cccc(C(F)(F)F)c3)ncn2)c(OC)cc1N1CCC(N2C[C@@H]3C[C@H]2CO3)CC1 [compound 944, N-(2-(4-((1S,4S)-2-oxa-5-azabicyclo [2.2.1]heptane-5-yl)piperidine-1-yl)-4-methoxy-5-((6-((R)-3-(3-(trifluoromethyl)phenyl)isoxazolidine-2-yl)pyrimidine-4-yl)amino)phenyl) acrylamide] |
| C (500 nM ≤ GI50 < 5000 nM) | C=CC(=O)Nc1cc(Nc2cc(N3OCC[C@H]3c3c(F)cccc3F)ncn2)c(OC)cc1N1CCC(N2CCN(CC)CC2)CC1 [compound 312, N-(5-((6-((S)-3-(2,6-difluorophenyl)isoxazolidine-2-yl)pyrimidine-4-yl)amino)-2-(4-(4-ethylpiperazine-1-yl)piperidine-1-yl)-4-methoxyphenyl) acrylamide] |
| A (GI50 < 50 nM) | C=CC(=O)Nc1cc(Nc2cc(N3OCC[C@@H]3Cc3ccccc3)ncn2)c(OC)cc1N1CCN(C(C)C)CC1 [compound 954, N-(5-((6-((S)-3-benzylisoxazolidine-2-yl)pyrimidine-4-yl)amino)-2-(4-isopropylpiperazine-1-yl)-4-methoxyphenyl) acrylamide] |
| A (GI50 < 50 nM) | C=CC(=O)Nc1cc(Nc2cc(N3OCC[C@@H]3c3ccc(Cl)cc3)ncn2)c(OC)cc1N1CCC(N(C)C)CC1 [compound 805, N-(5-((6-((R)-3-(4-chlorophenyl)isoxazolidine-2-yl)pyrimidine-4-yl)amino)-2-(4-(dimethylamino)piperidine-1-yl)-4-methoxyphenyl) acrylamide] |
| A (GI50 < 50 nM) | C=CC(=O)Nc1cc(Nc2cc(N3OCC[C@@H]3c3cccc(C#N)c3)ncn2)c(OC)cc1N1C[C@@H]2CCN(C)[C@@H]2C1 [compound 332, N-(5-((6-((R)-3-(3-cyanophenyl)isoxazolidine-2-yl)pyrimidine-4-yl)amino)-4-methoxy-2-((3aS,6aS)-1-methylhexahydropyrrolo [3,4-b]pyrrole-5(1H)-yl)phenyl)acrylamide] |
| A (GI50 < 50 nM) | C=CC(=O)Nc1cc(Nc2cc(N3OCC[C@@H]3c3cccc(F)c3F)ncn2)c(OC)cc1N1CCC(N2CCC(F)(F)CC2)CC1 [compound 341, N-(2-(4,4-difluoro-[1,4'-bipiperidine]-1'-yl)-5-((6-((R)-3-(2,3-difluorophenyl)isoxazolidine-2-yl)pyrimidine-4-yl)amino)-4-methoxyphenyl) acrylamide] |
| C (500 nM ≤ GI50 < 5000 nM) | C=CC(=O)Nc1cc(Nc2cc(N3OCC[C@H]3c3c(F)cccc3F)ncn2)c(OC)cc1N1CCC(N2C[C@@H](C)O[C@@H](C)C2)CC1 [compound 309, N-(5-((6-((S)-3-(2,6-difluorophenyl)isoxazolidine-2-yl)pyrimidine-4-yl)amino)-2-(4-((2S,6R)-2,6-dimethylmorpholino)piperidine-1-yl)-4-methoxyphenyl) acrylamide] |
| A (GI50 < 50 nM) | C=CC(=O)Nc1cc(Nc2cc(N3OCC[C@@H]3c3ccc(F)cc3F)ncn2)c(OC)cc1N1C[C@H]2C[C@@H]1CO2 [compound 353, N-(2-((1R,4R)-2-oxa-5-azabicyclo[2.2.1]heptane-5-yl)-5-((6-((R)-3-(2,4-difluorophenyl)isoxazolidine-2-yl)pyrimidine-4-yl)amino)-4-methoxyphenyl) acrylamide] |
| C (500 nM ≤ GI50 < 5000 nM) | C=CC(=O)Nc1cc(Nc2cc(N3OCC[C@@H]3c3ccc(F)c(F)c3)ncn2)c(OC)cc1N1CC[C@H](N2CCOCC2)C1 [compound 579, N-(5-((6-((R)-3-(3,4-difluorophenyl)isoxazolidine-2-yl)pyrimidine-4-yl)amino)-4-methoxy-2-((S)-3-morpholinopyrolidine-1-yl)phenyl)acrylamide] |
| A (GI50 < 50 nM) | C=CC(=O)Nc1cc(Nc2cc(N3OCC[C@@H]3c3ccc(Cl)c(F)c3)ncn2)c(OC)cc1N1CCC(N2C[C@@H]3C[C@H]2CO3)CC1 [compound 802, N-(2-(4-((1S,4S)-2-oxa-5-azabicyclo [2.2.1]heptane-5-yl)piperidine-1-yl)-5-((6-((R)-3-(4-chloro-3-fluorophenyl)isoxazolidine-2-yl)pyrimidine-4-yl)amino)-4-methoxyphenyl) acrylamide] |
| A (GI50 < 50 nM) | C=CC(=O)Nc1cc(Nc2cc(N3OCC[C@@H]3c3cc(F)cc(F)c3)ncn2)c(OC)cc1N1CCC(N2C[C@H](C)O[C@@H](C)C2)CC1 [compound 752, N-(5-((6-((R)-3-(3,5-difluorophenyl)isoxazolidine-2-yl)pyrimidine-4-yl)amino)-2-(4-((2S,6S)-2,6-dimethylmorpholino)piperidine-1-yl)-4-methoxyphenyl) acrylamide] |
| A (GI50 < 50 nM) | C=CC(=O)Nc1cc(Nc2cc(N3OCC[C@@H]3c3cccc(Cl)c3F)ncn2)c(OC)cc1N1CCC(N2CCO[C@H](C)C2)CC1 [compound 357, N-(5-((6-((R)-3-(3-chloro-2-fluorophenyl)isoxazolidine-2-yl)pyrimidine-4-yl)amino)-4-methoxy-2-(4-((R)-2-methylmorpholino)piperidine-1-yl)phenyl) acrylamide] |
| A (GI50 < 50 nM) | C=CC(=O)Nc1cc(Nc2cc(N3OCC[C@@H]3c3cc(F)cc(Cl)c3)ncn2)c(OC)cc1N1CCC(N2CCN(C3CC3)[C@H](C)C2)CC1 [Example 158, N-(5-((6-((R)-3-(3-chloro-5-fluorophenyl)isoxazolidine-2-yl)pyrimidine-4-yl)amino)-2-(4-((R)-4-cyclopropyl-3-methylpiperazine-1-yl)piperidine-1-yl)-4-methoxyphenyl) acrylamide] |
| A (GI50 < 50 nM) | C=CC(=O)Nc1cc(Nc2cc(N3OCC[C@@H]3c3cc(F)cc(F)c3)ncn2)c(OC)cc1N1C[C@@H]2CCN(C)[C@@H]2C1 [compound 891, N-(5-((6-((R)-3-(3,5-difluorophenyl)isoxazolidine-2-yl)pyrimidine-4-yl)amino)-4-methoxy-2-((3aS,6aS)-1-methylhexahydropyrrolo [3,4-b]pyrrole-5(1H)-yl)phenyl) acrylamide] |
| A (GI50 < 50 nM) | C=CC(=O)Nc1cc(Nc2cc(N3OCC[C@@H]3c3ccc(F)c(Cl)c3)ncn2)c(OC)cc1N1CCN(C)CC1 [compound 702, N-(5-((6-((R)-3-(3-chloro-4-fluorophenyl)isoxazolidine-2-yl)pyrimidine-4-yl)amino)-4-methoxy-2-(4-methylpiperazine-1-yl)phenyl)acrylamide] |
| A (GI50 < 50 nM) | C=CC(=O)Nc1cc(Nc2cc(N3OCC[C@@H]3c3ccccc3)ncn2)c(OC)cc1N1CCC(N2CCN(C3CCCC3)CC2)CC1 [Example 97, N-(2-(4-(4-cyclopentylpiperazine-1-yl)piperidine-1-yl)-4-methoxy-5-((6-((R)-3-phenylisoxazolidine-2-yl)pyrimidine-4-yl)amino)phenyl) acrylamide] |
| A (GI50 < 50 nM) | C=CC(=O)Nc1cc(Nc2cc(N3OCC[C@@H]3c3cccc(OC)c3)ncn2)c(OC)cc1N1CCC(N2C[C@H]3C[C@@H]2CO3)CC1 [compound 726, N-(2-(4-((1R,4R)-2-oxa-5-azabicyclo [2.2.1]heptane-5-yl)piperidine-1-yl)-4-methoxy-5-((6-((R)-3-(3-methoxyphenyl)isoxazolidine-2-yl)pyrimidine-4-yl)amino)phenyl)acrylamide] |
| A (GI50 < 50 nM) | C=CC(=O)Nc1cc(Nc2cc(N3OCC[C@@H]3c3ccc(F)c(Cl)c3)ncn2)c(OC)cc1N1CCC(N2CCN(C(C)C)CC2)CC1 [compound 715, N-(5-((6-((R)-3-(3-chloro-4-fluorophenyl)isoxazolidine-2-yl)pyrimidine-4-yl)amino)-2-(4-(4-isopropylpiperazine-1-yl)piperidine-1-yl)-4-methoxyphenyl) acrylamide] |
| A (GI50 < 50 nM) | C=CC(=O)Nc1cc(Nc2cc(N3OCC[C@@H]3c3cc(F)ccc3F)ncn2)c(OC)cc1N1CCC(N2CCN(C3CC3)CC2)CC1 [Example 61, N-(2-(4-(4-cyclopropylpiperazine-1-yl)piperidine-1-yl)-5-((6-((R)-3-(2,5-difluorophenyl)isoxazolidine-2-yl)pyrimidine-4-yl)amino)-4-methoxyphenyl) acrylamide;] |
